Data on one compound can be found in paper PMC11899342, “Novel Triazeneindole Antibiotics: Synthesis and Hit-to-Lead Optimization” (International Journal of Molecular Sciences, 2025).

The series can be described thus: Stability in artificial intestinal juice. Format: in vitro ADME. As to the method: During ADME studies, the concentration of the compounds was analyzed using ultra-performance liquid chromatography (UPLC) coupled with tandem mass spectrometry (MS/MS) in the multiple reaction monitoring (MRM) mode. A quantitative analysis was performed using the internal standard (IS) calibration method, with tolbutamide as the IS.
The analyses were carried out on a system composed of an Agilent 1290 Infinity UPLC system (Agilent Technologies, USA) connected by ESI interface to a tandem quadrupole mass spectrometer QTRAP 6500 (AB Sciex Corp, Framingham, MA, USA). The separation was conducted on an YMC Triart C18 50 × 2 mm, 1.9 μm column, which was kept at 35 °C. The samples were cooled to 8 °C in an autosampler, and aliquots of 1 µL were delivered onto the column. Elution was performed using gradients of A (0.1% formic acid in water) and B (0.1% formic acid in acetonitrile), at the flow rate 0.35 mL/min. […] The declustering potential was 31 V for BX and 93 V for IS, resepectively; the collision energy was attuned to 17 eV; the collision cell exit potential was 10 V for BX and 8 V for IS MRM, respectively; the analyses were recorded for 305 → 234 (BX) and 271 → 172 (tolbutamide). […]

Molecules are shown by their SMILES.

As for `CCOC(=O)c1[nH]c2cc(F)ccc2c1/N=N/N1CCCC1` [BX-SI043, Ethyl (E)-6-fluoro-3-(pyrrolidin-1-yldiazenyl)-1H-indole-2-carboxylate], the half-life at 1 µM (artificial intestinal juice with pancreatin, pH 6.8, pancreatin, 37 °C, 1 μM, read-out: t1/2 in artificial intestinal juice (converted)) is 1 h. Further, the “metabolism in intestinal juice after 4 h of incubation” value (pH 6.8, 37 °C, 4 h) is “fully metabolized”.
